Common to all, as to assay type: cell-based, human
For data set [1], the system named is A549 (lung adenocarcinoma). Put plainly: Cytotoxic MTS assay, A549. Conditions: Homo sapiens, A549; MTS, 72 h of incubation; read-out: Cytotoxic activity IC50, A549. Here is the method:
(§1) In vitro cytotoxic activity of final compounds 5–82 was evaluated after 3 days of incubation against eight cell lines derived from human solid tumors including lung (A549 cells) and colon (HCT116 and HCT116p53−/−) carcinomas, as well as leukemia cell lines (CCRF-CEM, CEM-DNR, K562, and K562-TAX) and osteosarcoma (U2OS cells). For comparison, non-malignant BJ and MRC-5 fibroblasts, and BJLD and MCR-5LD fibroblasts doxorubicin-resistant cell lines were used. Concentrations inhibiting the cell growth by 50% (IC50) were determined using a quantitative metabolic staining with 3-(4,5-dimethylthiazol-2yl)-5-(3-carboxymethoxyphenyl)-2-(4-sulfophenyl)-2H-tetrazolium (MTS) and are summarized in (Table 3).
(§2) Cytotoxic activity was determined by MTS assay following 72 h of incubation. IC50 is the lowest concentration that kills 50% of cells. The standard deviation in cytotoxicity assays is typically up to 20% of the average value. […] The tested cell lines: A549 (lung adenocarcinoma), BJ (noncancerous human fibroblasts from foreskin), BJLD (human lung fibroblast doxorubicin-resistant), CCRF-CEM (childhood T cell acute lymphoblastic leukemia), a daunorubicin-resistant subline of CCRF-CEM cells (CEM-DNR bulk), HCT116 (colorectal carcinoma), HCT116p53−/− (HCT116 with deleted p53 gene), K562 (chronic myeloid leukemia), K562-TAX (chronic myeloid leukemia paclitaxel-resistant subline), MRC-5 (noncancerous human lung fibroblasts), MRC-5LD (noncancerous human lung fibroblasts doxorubicin-resistant), and U2OS (osteosarcoma).
(§3) All cell lines were purchased from the American Tissue Culture Collection (ATCC). The A549 cell line is lung adenocarcinoma. MRC-5 and BJ cell lines were used as a non-tumor control and represent human fibroblasts. (MRC-5 LD and BJLD) are doxorubicin-resistant human lung fibroblast cell lines. The CCRF-CEM line is derived from T lymphoblastic leukemia, evincing high chemosensitivity, whereas K562 represent cells from an […] patient sample with bcr-abl translocation. The daunorubicin-resistant subline of CCRF-CEM cells (CEM-DNR bulk) and paclitaxel-resistant subline K562-TAX were selected in our laboratory by the cultivation of maternal cell lines in increasing concentrations of daunorubicin or paclitaxel, respectively. The CEM-DNR bulk cells overexpress MRP-1 and P-glycoprotein protein, whereas K562-TAX cells overexpress P-glycoprotein only. Both proteins belong to the family of ABC transporters and are involved in the primary and/or acquired multidrug-resistance phenomenon. The U2OS cell line is derived from osteosarcoma, HCT116 is a colorectal tumor cell line and its p53 gene knock-down counterpart (HCT116p53−/−, Horizon Discovery Ltd., Cambridge, UK) is a model of human cancers with p53 mutation frequently associated with poor prognosis. The cells were maintained in nunc/corning 80 cm^2 plastic tissue culture flasks and cultured in a cell culture medium according to ATCC or Horizon recommendations (DMEM/RPMI 1640 with 5 g/L glucose, 2 mM glutamine, 100 U/mL penicillin, […], 10% fetal calf serum, and NaHCO3).
(§4) The activity of compounds was determined using a standard 3-(4,5-dimethylthiazol-2-yl)-5-(3-carboxymethoxyphenyl)-2-(4-sulfophenyl)-2H-tetrazolium (MTS) and it was performed at the Institute of Molecular and Translational Medicine by a robotic platform (High-ResBiosolutions). Cell suspensions were prepared and diluted according to the particular cell type and the expected target cell density (25,000–35,000 cells/mL based on cell growth characteristics). Cells were added by automatic pipettor (30 µL) into 384-well microtiter plates. All tested compounds were dissolved in 100% DMSO and four-fold dilutions of the intended test concentration were added in 0.15 µL aliquots at time zero to the microtiter plate wells by the echo acoustic non-contact liquid handler Echo550 (Labcyte). […]
For orientation: Tetrazolium dyes change colour on reduction, which living cells bring about.

Another data set in a line: Cytotoxic MTS assay, BJ. Conditions: human, BJ cells (noncancerous foreskin fibroblasts); MTS, 72 h of incubation. Here is the method:
as §1, §2, §3, §4

The nature of data set [2]: Cytotoxic MTS assay, BJLD. Conditions: human, BJLD cells (fibroblasts, doxorubicin-resistant); MTS, 72 h of incubation. Here is the method:
as §1, §2, §3, §4

Data set [3] deals with CCRF-CEM (childhood T cell acute lymphoblastic leukemia). Put plainly: Cytotoxic MTS assay, CCRF-CEM. The conditions noted are these: Homo sapiens, CCRF-CEM; MTS, 72 h of incubation; read-out: Cytotoxic activity IC50, CCRF-CEM. Here is the method:
as §1, §2, §3, §4

Data set [4] relates to CEM-DNR bulk (daunorubicin-resistant subline of CCRF-CEM cells). Description: Cytotoxic MTS assay, CEM-DNR. Conditions: Homo sapiens, CEM-DNR; MTS, 72 h of incubation; read-out: Cytotoxic activity IC50, CEM-DNR. Here is the method: as §1, §2, §3, §4
The test system of data set [5] is HCT116 (colorectal carcinoma). Put plainly: Cytotoxic MTS assay, HCT116. The conditions noted are these: Homo sapiens, HCT-116; MTS, 72 h of incubation; read-out: Cytotoxic activity IC50, HCT116. Here is the method: as §1, §2, §3, §4
Data set [6] has as its system HCT116p53−/− (HCT116 with deleted p53 gene). Description: Cytotoxic MTS assay, HCT116p53−/−. Conditions: Homo sapiens, HCT-116; MTS, 72 h of incubation; read-out: Cytotoxic activity IC50, HCT116-p53. Here is the method:
as §1, §2, §3, §4

The test system of data set [7] is K562 (chronic myeloid leukemia). Put plainly: Cytotoxic MTS assay, K562. The conditions noted are these: Homo sapiens, K562; MTS, 72 h of incubation; read-out: Cytotoxic activity IC50, K562. The method, then: as §1, §2, §3, §4
For data set [8], the system named is K562-TAX (chronic myeloid leukemia paclitaxel-resistant subline). Put plainly: Cytotoxic MTS assay, K562-TAX. Conditions: Homo sapiens, K562-Tax; MTS, 72 h of incubation; read-out: Cytotoxic activity IC50, K562-TAX. Here is the method:
as §1, §2, §3, §4

A short description of data set [9]: Cytotoxic MTS assay, MRC-5. Conditions: human, MRC-5 cells (noncancerous lung fibroblasts); MTS, 72 h of incubation. The method, then:
as §1, §2, §3, §4

The nature of data set [10]: Cytotoxic MTS assay, MRC-5LD. The conditions noted are these: human; MTS, 72 h of incubation; read-out: Cytotoxic activity IC50, MRC5-LD. The method, then: as §1, §2, §3, §4
A further data set has as its system U2OS (osteosarcoma). Description: Cytotoxic MTS assay, U2OS. Conditions: Homo sapiens, U2OS; MTS, 72 h of incubation; read-out: Cytotoxic activity IC50, U2OS. Here is the method:
as §1, §2, §3, §4

The structures appear in SMILES notation.

In general, IC50 refers to the midpoint of a concentration-inhibition curve. As for `COc1ccc(C(=O)OCCC[S+]([O-])c2ccnc3cc(Cl)ccc23)cc1` (stereo not drawn) [Compound 53, 3-[(7-Chloroquinolin-4-yl)sulfinyl]propyl-4-methoxybenzoate], the IC50 in data set [1] was determined as 23.6 µM; in data set [3], 1.31 µM; in [4], 8.71 µM; in [5], 12.5 µM; in data set [6], 8.51 µM; in [7], 13.9 µM. Besides, the IC50 was 6.98 µM in [8] and 12.8 µM in the data set on U2OS (osteosarcoma). Besides, the IC50 at 72 h in “Cytotoxic MTS assay, BJ” is 30 µM; in data set [2], 28.2 µM; in data set [9] it was 27.9 µM; in data set [10], 22.4 µM.
Consider `COc1cccc(C(=O)OCCC[S+]([O-])c2ccnc3cc(Cl)ccc23)c1OC` (stereo not drawn) [Compound 54, 3-[(7-Chloroquinolin-4-yl)sulfinyl]propyl-2,3-dimethoxybenzoate], for which the IC50 in data set [1] is 25.8 µM; in data set [3], 1.09 µM; in data set [4], 10.1 µM; in data set [5] it was 14 µM; in data set [6] it was 9.19 µM; in data set [7], 14.1 µM. In addition, the IC50 stood at 7.63 µM in [8] and 17.2 µM in the data set with U2OS (osteosarcoma). For the same compound, the IC50 at 72 h in the data set “Cytotoxic MTS assay, BJ” was 30.4 µM; in data set [2] it was 26.9 µM; in data set [9], 27.2 µM; in [10], 25.1 µM.
Regarding `COc1cc(C(=O)OCCC[S+]([O-])c2ccnc3cc(Cl)ccc23)cc(OC)c1OC` (stereo not drawn) [Compound 57, 3-[(7-Chloroquinolin-4-yl)sulfinyl]propyl-3,4,5-trimethoxybenzoate], the IC50 in data set [1] stood at 30.5 µM; in [3], 1.51 µM; in data set [4], 16 µM; in data set [5], 19.3 µM; in data set [6], 14.8 µM; in data set [7] it was 17.4 µM. For the same compound, the values for the IC50 (in data set [8]; with U2OS (osteosarcoma)) were 14.6 µM and 21.3 µM, respectively. Besides, the IC50 at 72 h in the data set “Cytotoxic MTS assay, BJ” came out at 33 µM; in data set [2] it was 31.9 µM; in data set [9] it was 29.9 µM; in [10], 25.8 µM.
As for `COc1ccc(C(=O)OCCC[S+]([O-])c2ccnc3cc(Cl)ccc23)cc1[N+](=O)[O-]` (stereo not drawn) [Compound 59, 3-[(7-Chloroquinolin-4-yl)sulfinyl]propyl-4-methoxy-3-nitrobenzoate], the IC50 amounted to 7.76 µM in data set [1]; 1.2 µM in data set [3]; 8.81 µM in data set [4]; 8.86 µM in data set [5]; 6.81 µM in [6]; 8.77 µM in data set [7]. The IC50 came out at 6.12 µM in data set [8] and 5.15 µM with U2OS (osteosarcoma). For the same compound, the IC50 at 72 h came out at 21.6 µM in the data set “Cytotoxic MTS assay, BJ”; 10.2 µM in data set [2]; 23.7 µM in [9]; 10.3 µM in [10].
For the compound `Cc1ccc([N+](=O)[O-])c(C(=O)OCCC[S+]([O-])c2ccnc3cc(Cl)ccc23)c1` (stereo not drawn) [Compound 60, 3-[(7-Chloroquinolin-4-yl)sulfinyl]propyl-5-methyl-2-nitrobenzoate], the IC50 was found to be 9.55 µM in data set [1]; 1.13 µM in data set [3]; 7.27 µM in [4]; 7.77 µM in data set [5]; 6.06 µM in data set [6]; 8.86 µM in data set [7]. The IC50 in [8] worked out at 4.26 µM; with U2OS (osteosarcoma), 5.81 µM. The IC50 at 72 h is 29 µM in “Cytotoxic MTS assay, BJ”; 18.1 µM in [2]; 29.4 µM in data set [9]; 19.8 µM in [10].
As for `Cc1cc(C)cc(C(=O)OCCC[S+]([O-])c2ccnc3cc(Cl)ccc23)c1` (stereo not drawn) [Compound 61, 3-[(7-Chloroquinolin-4-yl)sulfinyl]propyl-3,5-dimethylbenzoate], the IC50 is 10.9 µM in [1]; 1.05 µM in data set [3]; 8.35 µM in [4]; 8.26 µM in data set [5]; 6.89 µM in data set [6]; 12.7 µM in [7]. The IC50 in data set [8] amounted to 6.76 µM; in the data set on U2OS (osteosarcoma), 8.1 µM. Further, the IC50 at 72 h was determined as 30.3 µM in “Cytotoxic MTS assay, BJ”; 27.6 µM in data set [2]; 26.1 µM in [9]; 22.1 µM in [10].

Source of the values: article PMC9607427, “Novel 7-Chloro-(4-thioalkylquinoline) Derivatives: Synthesis and Antiproliferative Activity through Inducing Apoptosis and DNA/RNA Damage” (Pharmaceuticals, 2022).
